From article PMC5218480 (PLoS ONE, 2017)

System: MV-4-11 cells
Test: Gene expression microarray analysis (Affymetrix PrimeView) and GSEA
Assay type: cell-based, human
Set-up: RFU PODN (11730768_x_at) / Fold change /veh PODN (11730768_x_at) / RFU LINC00158 (11744669_a_at) / Fold change /veh LINC00158 (11744669_a_at) / RFU DUSP10 (11751237_a_at) / Fold change /veh DUSP10 (11751237_a_at) / RFU ID3 (11757404_x_at) / Fold change /veh ID3 (11757404_x_at) / RFU PLEKHG5 (11737974_s_at) / Fold change /veh PLEKHG5 (11737974_s_at) / RFU LRRC4B (11730491_at) / Fold change /veh LRRC4B (11730491_at) / RFU GIMAP4 (11747438_a_at) / Fold change /veh GIMAP4 (11747438_a_at) / RFU KRT8 (11758183_x_at) / Fold change /veh KRT8 (11758183_x_at) / RFU CNN1 (11734310_a_at) / Fold change /veh CNN1 (11734310_a_at) / RFU VPS37D (11726825_at) / Fold change /veh VPS37D (11726825_at) / RFU C10orf10 (11716522_x_at) / Fold change /veh C10orf10 (11716522_x_at) / RFU KIR2DL2 /// KIR2DL4 /// KIR2DL5A /// KIR2DL5B /// KIR2DS1 /// KIR2DS2 /// KIR2DS3 /// KIR2DS4 /// KIR3DL3 /// KIR3DL3 /// KIR3DS1 (11738374_at) / Fold change /veh KIR2DL2 /// KIR2DL4 /// KIR2DL5A /// KIR2DL5B /// KIR2DS1 /// KIR2DS2 /// KIR2DS3 /// KIR2DS4 /// KIR3DL3 /// KIR3DL3 /// KIR3DS1 (11738374_at) / RFU C1QL1 (11718748_at) / Fold change /veh C1QL1 (11718748_at) / RFU TMPRSS4 (11747572_a_at) / Fold change /veh TMPRSS4 (11747572_a_at) / RFU HAMP (11756126_x_at) / Fold change /veh HAMP (11756126_x_at) / RFU RNFT2 (11725882_a_at) / Fold change /veh RNFT2 (11725882_a_at) / RFU NR4A2 (11747474_a_at) / Fold change /veh NR4A2 (11747474_a_at) / RFU ABCC12 (11746883_a_at) / Fold change /veh ABCC12 (11746883_a_at) / RFU TMEM136 (11760407_x_at) / Fold change /veh TMEM136 (11760407_x_at) / RFU CLDN22 /// WWC2 (11732394_at) / Fold change /veh CLDN22 /// WWC2 (11732394_at) / RFU HLA-DPB1 (11760878_x_at) / Fold change /veh HLA-DPB1 (11760878_x_at) / RFU SPINT1 (11716480_a_at) / Fold change /veh SPINT1 (11716480_a_at) / RFU GAP43 (11754022_s_at) / Fold change /veh GAP43 (11754022_s_at) / RFU A4GNT (11735810_at) / Fold change /veh A4GNT (11735810_at) / RFU PRB3 (11715151_x_at) / Fold change /veh PRB3 (11715151_x_at) / RFU TUBB4B (11761932_at) / Fold change /veh TUBB4B (11761932_at) / RFU CAPN14 (11732068_a_at) / Fold change /veh CAPN14 (11732068_a_at) / RFU TMCC2 (11721928_a_at) / Fold change /veh TMCC2 (11721928_a_at) / RFU IRGQ (11745062_a_at) / Fold change /veh IRGQ (11745062_a_at) / RFU FAM174B (11720279_a_at) / Fold change /veh FAM174B (11720279_a_at) / RFU TMPRSS4 (11748680_a_at) / Fold change /veh TMPRSS4 (11748680_a_at) / RFU FAM212B (11763350_a_at) / Fold change /veh FAM212B (11763350_a_at) / RFU PLEKHG5 (11743358_a_at) / Fold change /veh PLEKHG5 (11743358_a_at) / RFU ZSCAN30 (11745921_a_at) / Fold change /veh ZSCAN30 (11745921_a_at) / RFU CMKLR1 (11741424_a_at) / Fold change /veh CMKLR1 (11741424_a_at) / RFU LOC101060620 /// MAPK8IP1 (11723275_at) / Fold change /veh LOC101060620 /// MAPK8IP1 (11723275_at) / RFU SPTSSB (11747773_x_at) / Fold change /veh SPTSSB (11747773_x_at) / RFU PRSS12 (11739890_at) / Fold change /veh PRSS12 (11739890_at) / RFU BIN1 (11741810_x_at) / Fold change /veh BIN1 (11741810_x_at) / RFU WNT11 (11732464_a_at) / Fold change /veh WNT11 (11732464_a_at) / RFU C10orf10 (11716521_a_at) / Fold change /veh C10orf10 (11716521_a_at) / RFU C5orf56 (11738089_at) / Fold change /veh C5orf56 (11738089_at) / RFU CYB561 (11721691_x_at) / Fold change /veh CYB561 (11721691_x_at) / RFU ANKRD19P (11752326_a_at) / Fold change /veh ANKRD19P (11752326_a_at) / RFU OR2T12 /// OR2T33 /// OR2T8 (11738714_s_at) / Fold change /veh OR2T12 /// OR2T33 /// OR2T8 (11738714_s_at) / RFU VCAN (11748164_a_at) / Fold change /veh VCAN (11748164_a_at) / RFU JSRP1 (11732532_at) / Fold change /veh JSRP1 (11732532_at) / RFU KRTAP10-11 (11738290_x_at) / Fold change /veh KRTAP10-11 (11738290_x_at) / RFU MYO3A (11730013_a_at) / Fold change /veh MYO3A (11730013_a_at) / RFU EBF3 (11725865_a_at) / Fold change /veh EBF3 (11725865_a_at) / RFU CAMK2N1 (11719241_x_at) / Fold change /veh CAMK2N1 (11719241_x_at) / RFU C5orf56 (11738088_a_at) / Fold change /veh C5orf56 (11738088_a_at) / RFU OLFML3 (11715873_a_at) / Fold change /veh OLFML3 (11715873_a_at) / RFU LOC100653217 /// NTM (11731650_a_at) / Fold change /veh LOC100653217 /// NTM (11731650_a_at) / RFU MAPK11 (11762145_a_at) / Fold change /veh MAPK11 (11762145_a_at) / RFU FIZ1 (11724087_x_at) / Fold change /veh FIZ1 (11724087_x_at) / RFU OASL (11726364_x_at) / Fold change /veh OASL (11726364_x_at) / RFU SOX15 (11748057_x_at) / Fold change /veh SOX15 (11748057_x_at) / RFU CD79A (11719716_a_at) / Fold change /veh CD79A (11719716_a_at) / RFU HIST1H1D (11736915_at) / Fold change /veh HIST1H1D (11736915_at) / RFU CASKIN2 (11723855_a_at) / Fold change /veh CASKIN2 (11723855_a_at) / RFU LOC730098 (11760151_x_at) / Fold change /veh LOC730098 (11760151_x_at) / RFU OR4N2 (11742367_at) / Fold change /veh OR4N2 (11742367_at) / RFU PRRT2 (11749266_a_at) / Fold change /veh PRRT2 (11749266_a_at) / RFU SNX32 (11753110_a_at) / Fold change /veh SNX32 (11753110_a_at) / RFU CDHR5 (11726645_a_at) / Fold change /veh CDHR5 (11726645_a_at) / RFU RCAN1 (11760418_a_at) / Fold change /veh RCAN1 (11760418_a_at) / RFU FAM167A (11723789_a_at) / Fold change /veh FAM167A (11723789_a_at) / RFU FAM26E (11764081_at) / Fold change /veh FAM26E (11764081_at) / RFU ISYNA1 (11749810_s_at) / Fold change /veh ISYNA1 (11749810_s_at) / RFU ACY1 (11761880_at) / Fold change /veh ACY1 (11761880_at) / RFU 11764098_at / Fold change /veh 11764098_at / RFU SAMD14 (11745864_x_at) / Fold change /veh SAMD14 (11745864_x_at) / RFU NPB (11741838_a_at) / Fold change /veh NPB (11741838_a_at) / RFU TMPRSS6 (11731388_a_at) / Fold change /veh TMPRSS6 (11731388_a_at) / RFU KRTAP10-2 (11738614_at) / Fold change /veh KRTAP10-2 (11738614_at) / RFU ARHGAP8 /// PRR5-ARHGAP8 (11727945_x_at) / Fold change /veh ARHGAP8 /// PRR5-ARHGAP8 (11727945_x_at) / RFU KRTAP5-7 /// NADSYN1 (11734609_at) / Fold change /veh KRTAP5-7 /// NADSYN1 (11734609_at) / RFU RASL12 (11751679_a_at) / Fold change /veh RASL12 (11751679_a_at) / RFU CDKN2B (11736163_a_at) / Fold change /veh CDKN2B (11736163_a_at) / RFU PRF1 (11729649_at) / Fold change /veh PRF1 (11729649_at) / RFU, ZNF638 /// ZNF638-IT1 / Fold change vs veh, ZNF638 /// ZNF638-IT1 / RFU, PANK3 / Fold change vs veh, PANK3 / RFU, SH3YL1 / Fold change vs veh, SH3YL1 / RFU, ZEB2 / Fold change vs veh, ZEB2 / RFU, NRIP1 / Fold change vs veh, NRIP1 / RFU, PTTG1IP / Fold change vs veh, PTTG1IP / RFU, CAPN2 / Fold change vs veh, CAPN2 / RFU, MED14 / Fold change vs veh, MED14 / RFU, SNORA58 / Fold change vs veh, SNORA58 / RFU, C1orf63 / Fold change vs veh, C1orf63 / RFU, LRRFIP1 / Fold change vs veh, LRRFIP1 / RFU, NDUFAF7 / Fold change vs veh, NDUFAF7 / RFU, SLC12A2 / Fold change vs veh, SLC12A2 / RFU, IBTK / Fold change vs veh, IBTK / RFU, ESF1 / Fold change vs veh, ESF1 / Fold change vs veh, TMEM50B / RFU, TAOK1 / Fold change vs veh, TAOK1 / RFU, ACBD3 / Fold change vs veh, ACBD3 / RFU, TMA16 / Fold change vs veh, TMA16 / RFU, RWDD3 / Fold change vs veh, RWDD3 / RFU, BCAT1 / Fold change vs veh, BCAT1 / RFU, EDEM3 / Fold change vs veh, EDEM3 / RFU, TMEM33 / Fold change vs veh, TMEM33 / RFU, WDR75 / Fold change vs veh, WDR75 / RFU, AHCTF1 / Fold change vs veh, AHCTF1 / RFU, TFRC / Fold change vs veh, TFRC / RFU, ZDHHC17 / Fold change vs veh, ZDHHC17 / RFU, NOM1 / Fold change vs veh, NOM1 / RFU, ARL8B / Fold change vs veh, ARL8B / RFU, ZBTB11 / Fold change vs veh, ZBTB11 / RFU, TAMM41 / Fold change vs veh, TAMM41 / RFU, KIAA1704 /// LOC100996395 / Fold change vs veh, KIAA1704 /// LOC100996395 / RFU, ING1 / Fold change vs veh, ING1 / RFU, TRMT61B / Fold change vs veh, TRMT61B / RFU, FUBP3 / Fold change vs veh, FUBP3 / RFU, TP53 / Fold change vs veh, TP53 / RFU, TNKS2 / Fold change vs veh, TNKS2 / RFU, ZFP14 / Fold change vs veh, ZFP14 / RFU, ACTR2 / Fold change vs veh, ACTR2 / RFU, PPP3R1 / Fold change vs veh, PPP3R1 / RFU, PIK3R1 / Fold change vs veh, PIK3R1 / RFU, HNRNPA1 / Fold change vs veh, HNRNPA1 / RFU, RNF170 / Fold change vs veh, RNF170 / RFU, ZNF28 / Fold change vs veh, ZNF28 / RFU, RNGTT / Fold change vs veh, RNGTT / RFU, OGT / Fold change vs veh, OGT / RFU, BRD1 / Fold change vs veh, BRD1 / RFU, MARS / Fold change vs veh, MARS / RFU, ZNF655 / Fold change vs veh, ZNF655 / RFU, FAHD1 / Fold change vs veh, FAHD1 / RFU, BDP1 / Fold change vs veh, BDP1 / RFU, LRRCC1 / Fold change vs veh, LRRCC1 / RFU, ARID1A / Fold change vs veh, ARID1A / RFU, ZNF146 / Fold change vs veh, ZNF146 / RFU, ZNF330 / Fold change vs veh, ZNF330 / RFU, GPN3 / Fold change vs veh, GPN3 / RFU, C9orf123 / Fold change vs veh, C9orf123 / RFU, N4BP2L2 / Fold change vs veh, N4BP2L2 / RFU, ARFIP1 / Fold change vs veh, ARFIP1 / RFU, FAM179B / Fold change vs veh, FAM179B / RFU, BCL10 / Fold change vs veh, BCL10 / RFU, UHRF1BP1L / Fold change vs veh, UHRF1BP1L / RFU, BET1 / Fold change vs veh, BET1 / RFU, CNOT2 / Fold change vs veh, CNOT2 / RFU, ZNF268 / Fold change vs veh, ZNF268 / Fold change vs veh, ZNF507 / RFU, DGCR2 / Fold change vs veh, DGCR2 / RFU, WDSUB1 / Fold change vs veh, WDSUB1 / Fold change vs veh, HSP90B1 /// MIR3652 / RFU, ADSS / Fold change vs veh, ADSS / RFU, GK / Fold change vs veh, GK / RFU, ZNF148 / Fold change vs veh, ZNF148 / RFU, TAF9 / Fold change vs veh, TAF9 / RFU, SLC1A5 / Fold change vs veh, SLC1A5 / RFU, SLMO2 / Fold change vs veh, SLMO2 / RFU, ABCC4 / Fold change vs veh, ABCC4 / RFU, LOC101060439 /// RAP1B / Fold change vs veh, LOC101060439 /// RAP1B / RFU, RFX7 / Fold change vs veh, RFX7 / RFU, GTPBP10 / Fold change vs veh, GTPBP10 / RFU, CNEP1R1 / Fold change vs veh, CNEP1R1 / RFU, BIVM-ERCC5 /// ERCC5 / Fold change vs veh, BIVM-ERCC5 /// ERCC5 / RFU, ILF3 / Fold change vs veh, ILF3 / RFU 11762660_at / Fold change /veh 11762660_at / RFU VCAN (11757783_s_at) / Fold change /veh VCAN (11757783_s_at) / RFU DDX43 (11728927_at) / Fold change /veh DDX43 (11728927_at) / RFU KRT8 (11758188_x_at) / Fold change /veh KRT8 (11758188_x_at) / RFU NKD1 (11759106_at) / Fold change /veh NKD1 (11759106_at) / RFU SRD5A1 (11742802_a_at) / Fold change /veh SRD5A1 (11742802_a_at) / RFU TPSAB1 /// TPSB2 (11721975_s_at) / Fold change /veh TPSAB1 /// TPSB2 (11721975_s_at) / RFU GSTM3 (11746129_a_at) / Fold change /veh GSTM3 (11746129_a_at) / RFU IL23R (11737362_x_at) / Fold change /veh IL23R (11737362_x_at) / RFU TMEM51 (11727254_a_at) / Fold change /veh TMEM51 (11727254_a_at) / RFU PIWIL2 (11732686_x_at) / Fold change /veh PIWIL2 (11732686_x_at) / RFU ORM1 (11744905_x_at) / Fold change /veh ORM1 (11744905_x_at) / RFU CCDC152 (11743942_at) / Fold change /veh CCDC152 (11743942_at) / RFU ECM1 (11717891_a_at) / Fold change /veh ECM1 (11717891_a_at) / RFU IL23R (11748794_a_at) / Fold change /veh IL23R (11748794_a_at) / RFU TNFAIP8L3 (11732012_x_at) / Fold change /veh TNFAIP8L3 (11732012_x_at) / RFU MBOAT4 (11741988_at) / Fold change /veh MBOAT4 (11741988_at) / RFU 11764193_at / Fold change /veh 11764193_at / RFU TMEM53 (11763286_at) / Fold change /veh TMEM53 (11763286_at) / RFU MAGEB2 (11727129_at) / Fold change /veh MAGEB2 (11727129_at) / RFU TMEM200A (11744735_a_at) / Fold change /veh TMEM200A (11744735_a_at) / RFU CCDC152 (11751479_a_at) / Fold change /veh CCDC152 (11751479_a_at) / RFU FAM211A (11726209_a_at) / Fold change /veh FAM211A (11726209_a_at) / RFU RGS16 (11746705_a_at) / Fold change /veh RGS16 (11746705_a_at) / RFU VCAN (11755009_s_at) / Fold change /veh VCAN (11755009_s_at) / RFU RHOB (11743442_s_at) / Fold change /veh RHOB (11743442_s_at) / RFU RGS16 (11720943_a_at) / Fold change /veh RGS16 (11720943_a_at) / RFU RGS16 (11720944_at) / Fold change /veh RGS16 (11720944_at) / RFU, VPS4B / Fold change vs veh, VPS4B / RFU, CREB1 / Fold change vs veh, CREB1 / RFU, DNAJC13 / Fold change vs veh, DNAJC13 / RFU, GNAQ / Fold change vs veh, GNAQ / RFU, CDK5R1 / Fold change vs veh, CDK5R1 / RFU, ZRANB3 / Fold change vs veh, ZRANB3 / RFU, CUL4A / Fold change vs veh, CUL4A / RFU, CCNY / Fold change vs veh, CCNY / RFU, UFL1 / Fold change vs veh, UFL1 / RFU, COG3 / Fold change vs veh, COG3 / RFU, DIAPH2 / Fold change vs veh, DIAPH2 / RFU, SKA2 / Fold change vs veh, SKA2 / RFU, AFF3 / Fold change vs veh, AFF3 / RFU, LMF1 / Fold change vs veh, LMF1 / RFU, IPO11 / Fold change vs veh, IPO11 / RFU, DFFB / Fold change vs veh, DFFB / RFU, FOXP1 / Fold change vs veh, FOXP1 / RFU, CARD8 / Fold change vs veh, CARD8 / RFU, STRN3 / Fold change vs veh, STRN3 / RFU, ADK / Fold change vs veh, ADK / RFU, RASSF2 / Fold change vs veh, RASSF2 / RFU, WIPF1 / Fold change vs veh, WIPF1 / RFU, LARP1B / Fold change vs veh, LARP1B / RFU, RASA1 / Fold change vs veh, RASA1 / RFU, RB1 / Fold change vs veh, RB1 / RFU, PPFIA1 / Fold change vs veh, PPFIA1 / RFU, MAT2A / Fold change vs veh, MAT2A / RFU, CCT5 / Fold change vs veh, CCT5 / RFU, WDR92 / Fold change vs veh, WDR92 / RFU, CUX1 / Fold change vs veh, CUX1 / RFU, TTC7A / Fold change vs veh, TTC7A / RFU, TMEM135 / Fold change vs veh, TMEM135 / RFU, DEPTOR / Fold change vs veh, DEPTOR / RFU, CPM / Fold change vs veh, CPM / RFU, DNAJB6 / Fold change vs veh, DNAJB6 / RFU, CACNA2D3 / Fold change vs veh, CACNA2D3 / RFU, DTX4 / Fold change vs veh, DTX4 / RFU, TFCP2 / Fold change vs veh, TFCP2 / RFU, GMCL1 /// GMCL1P1 / Fold change vs veh, GMCL1 /// GMCL1P1 / RFU, AEBP2 / Fold change vs veh, AEBP2 / RFU, SNHG1 /// SNORD22 /// SNORD25 /// SNORD26 /// SNORD27 /// SNORD28 /// SNORD29 /// SNORD31 / Fold change vs veh, SNHG1 /// SNORD22 /// SNORD25 /// SNORD26 /// SNORD27 /// SNORD28 /// SNORD29 /// SNORD31 / Fold change (Aza/veh), C12orf56 (ProbeSet 11735607_a_at) / Fold change (ACY-1035/veh), C12orf56 (ProbeSet 11735607_a_at) / Fold change (Aza/veh), FGFR1OP (ProbeSet 11751329_s_at) / Fold change (ACY-1035/veh), FGFR1OP (ProbeSet 11751329_s_at) / Fold change (Aza/veh), VPS36 (ProbeSet 11739960_a_at) / Fold change (ACY-1035/veh), VPS36 (ProbeSet 11739960_a_at) / RFU SYPL1 (11715823_x_at) / Fold change /veh SYPL1 (11715823_x_at) / RFU IGFBP7 (11715501_s_at) / Fold change /veh IGFBP7 (11715501_s_at) / RFU REEP3 (11722064_at) / Fold change /veh REEP3 (11722064_at) / RFU IGLL1 (11728026_x_at) / Fold change /veh IGLL1 (11728026_x_at): dose or concentration left out as unconfirmed
Conditions: ProbeSet 11733831_s_at; LIST D

## Nc1ncn([C@@H]2O[C@H](CO)[C@@H](O)[C@H]2O)c(=O)n1 [azacitidine]
  RFU, GMCL1 /// GMCL1P1: 32.38 RFU
